This is an account of results in patent US20250040554A1, “NEW USES OF PHENMEDIPHAM AND HERBICIDAL COMBINATIONS COMPRISING PHENMEDIPHAM” (BAYER AKTIENGESELLSCHAFT, priority 2021, published 2025).

Holding throughout (format): in vivo
One data set deals with BROTE=Bromus tectorum. Description: Greenhouse weed control trial BROTE. To be noted: 25 DAA. The text has this:
(§1) The respective (combinations of) materials were applied to weed plants in the greenhouse or in the field at the respective growth stage indicated hereinafter for the different weed species mentioned below. The respective (combinations of) active ingredients were also applied to corn, cotton and soybean crop plants, and the selectivity (damage) in these crop plants rated (assessed).
(§2) Visual scoring of the damage to the trial plants took place after the time mentioned in the respective Table—indicated in number of Days After Application (DAA). Damage and development of all above-ground parts of the respective plants was recorded. Visual rating was done on a percentage scale in relation to the untreated control (100%=all plants dead; 50%=green plant biomass reduced by 50%, and 0%=no discernible difference=like control plot).
(§3) The trials in the greenhouse were sprayed with an application volume of 300 L/ha with an automated track sprayer. The plots in the field were sprayed with an application volume of 140 L/ha with a hand held spray boom.
In greenhouse selectivity trials and trials herbicidal activity trials against weed plants were investigated in post-emergence application of the respective material(s).
Herbicidal activity against different weeds (undesired plants) was calculated as follows.
(§4) wherein • A, B=respective value in percent of active ingredient A at a dose rate of a g/ha, ingredient B at a dose rate of b g/ha • E^C=Expected value according to Colby (S. R. Colby; Weeds 15 (1967), 20-22) in % at a dose rate of a+b, each in g/ha • Δ=Difference (in %) between measured value E and expected value E^C (%) (measured value minus expected value)
• measured value E is greater than E^C:->synergism (+Δ) • measured value E is equal to E^C:->additive effect • measured value E is smaller than E^C:->antagonism (−Δ)
The weed control activity of different (combinations of) materials was investigated in greenhouse trials for the following weed species: • STEME=Stellaria media • ECHCG=Echinochloa crus-galli • BROTE=Bromus tectorum
Phenmedipham amd Mesotrione were applied at varying application rates (Dose Rate) to the weed plant species STEME, ECHCG and BROTE. The results are shown in Tables 2a to 2c as the % control when assessed 25 days after application (25 DAA).
In all the trials of Table Tables 2a to 2c Mero® (rapeseed oil methyl ester) was added to the respective spray mixture in an amount corresponding to 1 L/ha for PMP, 1 L/ha for MST, and 2 L/ha for mixtures of PMP+MST.

Data set [1] relates to IPOAO=Ipomoea aristolochiaefolia. As to the kind of experiment: Weed control field trial IPOAO.
Source text: as §1, §2, §3, §4
The growth stages of the different weed species are indicated according to the BBCH monograph “Growth stages of mono- and dicotyledonous plants”, 2nd edition, 2001, ed. Uwe Meier, Federal Biological Research Centre for Agriculture and Forestry (Biologische Bundesanstalt für Land und Forstwirtschaft).
After the harmful plants had emerged, they were treated, at the respective growth stage indicated, with the respective materials as indicated at a water application rate of 140 L/ha.
After the treatment (21 or 35 days after application of the respective material), the herbicidal activity of respective material was scored visually at the same time by comparing the differently treated plots with the untreated control plots. The score figures of the different plots were averaged.
(§5) The dose rates of herbicidal ingredients used in each case are indicated for the respective active ingredient and refer to the amount of active ingredient per hectare (g/ha).
The weed control activity of different (combinations of) herbicidal active ingredients was investigated in field trials for the following weed species: • AMAVI=Amaranthus viridis • IPOAO=Ipomoea aristolochiaefolia • EPHHL=Euphorbia heterophylla • BIDPI=Bidens pilosa • BRADC=Brachiaria decumbens • ELEIN=Eleusine indica • CCHEC=Cenchrus echinatus
The growth stage of AMAVI was BBCH 13, the growth stage of IPOAO was BBCH 15, the growth stage of EPHHL was BBCH 13, the growth stage of BIDPI was BBCH 14, the growth stage of BRADC was BBCH 23, the growth stage of ELEIN was BBCH 11 and the growth stage of CCHEC was BBCH 12 at the time of application of the respective material.
Phenmedipham and Mesotrione were applied at varying application rates (Dose Rate) to the different species of weed plants. The results are shown in Tables 3a to 3e as the % control when assessed 21 and 35 days after application (DAA), respectively.
In all the trials of Tables 3a to 3e Mero® (rapeseed oil methyl ester) was added to the respective spray mixture in an amount corresponding to 1 L/ha for PMP, 1 L/ha for MST, and 2 L/ha for mixtures of PMP+MST.

The subject of another data set is KCHSC=Kochia scoparia. Description: Weed control field trial KCHSC. To be noted: 15 DAA.
Source text: as §1, §2, §4
After the harmful plants had emerged, they were treated, at the respective growth stage indicated, with the respective materials as indicated at a water application rate of 187 L/ha.
After the treatment (15 days after the treatment), the herbicidal activity of respective material was scored visually at the same time by comparing the differently treated plots with the untreated control plots. The score figures of the different plots were averaged.
as §5
The weed control activity of different (combinations of) herbicidal active ingredients was investigated in field trials for the following weed species: • AMARE=Amaranthus retroflexus • KCHSC=Kochia scoparia • PANRA=Panicum ramosum
The growth stage of AMARE was BBCH 19, the growth stage of KCHSC was BBCH 19 and the growth stage of PANRA was BBCH 22 at the time of application of the respective material.
Phenmedipham and the respective aroylcyclohexanedione herbicide were applied at varying application rates (Dose Rate) to the different species of weed plants. The results are shown in Tables 4a to 4d as the % control when assessed 15 days after application (DAA), respectively.
In all the trials of Tables 4a to 4d Mero® (rapeseed oil methyl ester) was added to the respective spray mixture in an amount corresponding to 1 L/ha for PMP, 1 L/ha for the respective aroylcyclohexanedione herbicide, and 2 L/ha for mixtures of PMP+the respective aroylcyclohexanedione herbicide.

For a further data set, the system named is corn (Zea mays, ZEAMX). As to the kind of experiment: Field selectivity trial corn. Conditions: 35 DAA.
Source text: as §1, §2, §3
Phenmedipham and combinations of phenmedipham and mesotrione were applied at varying application rates (Dose Rate) to the crop plants of non-traited soybean (Glycine max, GLXMA) and corn (Zea mays, ZEAMX). The results are shown in Table 5 as the % damage when assessed 35 days after application (DAA), respectively.
In all the selectivity trials of Table 5 the adjuvant Mero® (rapeseed oil methyl ester) was added to the respective spray mixture in an amount corresponding to 1 L/ha for PMP, 1 L/ha for MST, and 2 L/ha for mixtures of PMP+MST.
The herbicidal effects observed for the herbicide(s) are indicated in % activity against the respective weed. The % damage (injury) indicated refers to the maximum damage observed.

Consider `COC(=O)Nc1cccc(OC(=O)Nc2cccc(C)c2)c1` [PMP, 3-[(methoxyformyl)amino]phenyl (3-methylphenyl)carbamate], for which the “% control BROTE” value in the data set on BROTE=Bromus tectorum (12.5 g/ha) turned out to be 0%; with BROTE=Bromus tectorum (25 g/ha) it was 0%; in the data set on BROTE=Bromus tectorum (50 g/ha) it was 9%; with BROTE=Bromus tectorum (75 g/ha) it was 0%; with BROTE=Bromus tectorum (100 g/ha), 0%; in the data set with BROTE=Bromus tectorum (125 g/ha), 0%. Besides, the “% control BROTE” value in the data set on BROTE=Bromus tectorum (300 g/ha) was 20%. In addition, the “% control IPOAO” value in data set [1] (75 g/ha, 21 DAA) is 0%; in data set [1] (75 g/ha, 35 DAA), 0%; in data set [1] (100 g/ha, 21 DAA), 0%; in data set [1] (100 g/ha, 35 DAA) it was 0%; in data set [1] (125 g/ha, 21 DAA) it was 0%; in data set [1] (125 g/ha, 35 DAA), 0%. Also, the “% control IPOAO” value came to 0% in data set [1] (250 g/ha, 21 DAA) and 0% in data set [1] (250 g/ha, 35 DAA). In addition, the figures for the “% control KCHSC” value in the data set on KCHSC=Kochia scoparia (150 g/ha) and with KCHSC=Kochia scoparia (300 g/ha) were 0% and 5%, respectively. The “maximum damage ZEAMX” value turned out to be 6% in the data set on corn (Zea mays, ZEAMX) (75 g/ha); 6% in the data set with corn (Zea mays, ZEAMX) (125 g/ha); 6% in the data set with corn (Zea mays, ZEAMX) (250 g/ha).
For the compound `CS(=O)(=O)c1ccc(C(=O)C2C(=O)CCCC2=O)c([N+](=O)[O-])c1` [MST, 2-[4-(methylsulfonyl)-2-nitrobenzoyl]cyclohexane-1,3-dione], the “% control BROTE” value is on record as 30% in the data set on BROTE=Bromus tectorum (12.5 g/ha), 30% in the data set with BROTE=Bromus tectorum (25 g/ha), 35% in the data set with BROTE=Bromus tectorum (50 g/ha) and 40% with BROTE=Bromus tectorum (75 g/ha). Besides, the “% control IPOAO” value came out at 0% in data set [1] (25 g/ha, 21 DAA); 0% in data set [1] (25 g/ha, 35 DAA); 17% in data set [1] (50 g/ha, 21 DAA); 0% in data set [1] (50 g/ha, 35 DAA). The “% control KCHSC” value amounted to 40% with KCHSC=Kochia scoparia (20 g/ha); 45% with KCHSC=Kochia scoparia (40 g/ha); 45% in the data set on KCHSC=Kochia scoparia (60 g/ha); 45% in the data set on KCHSC=Kochia scoparia (80 g/ha); 50% in the data set on KCHSC=Kochia scoparia (100 g/ha). The “maximum damage ZEAMX” value is reported as 0% in the data set with corn (Zea mays, ZEAMX) (25 g/ha) and 0% in the data set on corn (Zea mays, ZEAMX) (50 g/ha).
